Columns and labels:
[1] = test system: Lactiplantibacillus plantarum 1,5-anhydroglucitol-6-phosphate isomerase LpYbiW (Uniprot A0A807DR53), SEQ ID NO: 2; assay: Michaelis-Menten kinetics of LpYbiW, coupled with LpFsaA and EcGldA, NADH consumption at A340nm; type: biochemical; settings: 100 nM activated LpYbiW, 20 mM Tris/HCl pH 7.5, 100 mM KCl, 5 µM LpFsaA, 5 µM EcGldA, 0.4 mM NADH, anaerobic glove box; substrate 1,5-anhydroglucitol-6-phosphate at varying concentrations
Procedure: Continuous-wave X-band EPR spectroscopy was used to characterize the LpYbiW glycyl radical. A reaction system (200 µL) containing 20 mM Tris/HCl, (pH 7.5), 100 mM KCl, 100 µM titanium(III) citrate, 1 mM SAM, 80 µM reconstituted LpYbiY, and 40 µM LpYbiW was incubated for 15 minutes at room temperature in a glove box. 10% glycerol was added, and a resulting mixture was loaded into an EPR tube (Wilmad Lab Glass, 734-LPV-7) with an outer diameter of 4 mm and a length of 8 inches. The tube was sealed with a rubber stopper, removed from the glove box, and frozen using liquid nitrogen before EPR analysis. The experimental spectrum of the glycyl radical was modeled using Bruker Xepr spin fitting to obtain g-values, hyperfine coupling constants, and line widths. Double integration of the simulated spectrum was used to measure the spin concentration. […]
The Michaelis-Menten kinetic parameters of LpYbiW were determined by coupling with LpFsaA and EcGldA. The reaction rate of LpYbiW was monitored by measuring NADH consumption at A340nm. The absorbance change of the reaction system at 340 nm was measured every 5 seconds using the cuvette mode of an ultra-micro UV-visible spectrophotometer (Nanophotometer) in a glove box (1 cm light path). […]

[2] = target: T1, Escherichia coli strain K12 1,5-anhydromannitol-6-phosphate isomerase EcPflD (Uniprot P32674), SEQ ID NO: 98 (Escherichia coli, UniProt P32674); assay: Michaelis-Menten kinetics of EcPflD, coupled with EcFsaB and EcGldA, decrease in A340nm; type: biochemical; settings: 40 nM activated EcPflD, 20 mM Tris/HCl pH 7.5, 100 mM KCl, 2 µM EcFsaB, 2 µM EcGldA, 0.4 mM NADH, anaerobic glove box; substrate 1,5-AM-6P at various concentrations
T1 sequence (P32674 1-765): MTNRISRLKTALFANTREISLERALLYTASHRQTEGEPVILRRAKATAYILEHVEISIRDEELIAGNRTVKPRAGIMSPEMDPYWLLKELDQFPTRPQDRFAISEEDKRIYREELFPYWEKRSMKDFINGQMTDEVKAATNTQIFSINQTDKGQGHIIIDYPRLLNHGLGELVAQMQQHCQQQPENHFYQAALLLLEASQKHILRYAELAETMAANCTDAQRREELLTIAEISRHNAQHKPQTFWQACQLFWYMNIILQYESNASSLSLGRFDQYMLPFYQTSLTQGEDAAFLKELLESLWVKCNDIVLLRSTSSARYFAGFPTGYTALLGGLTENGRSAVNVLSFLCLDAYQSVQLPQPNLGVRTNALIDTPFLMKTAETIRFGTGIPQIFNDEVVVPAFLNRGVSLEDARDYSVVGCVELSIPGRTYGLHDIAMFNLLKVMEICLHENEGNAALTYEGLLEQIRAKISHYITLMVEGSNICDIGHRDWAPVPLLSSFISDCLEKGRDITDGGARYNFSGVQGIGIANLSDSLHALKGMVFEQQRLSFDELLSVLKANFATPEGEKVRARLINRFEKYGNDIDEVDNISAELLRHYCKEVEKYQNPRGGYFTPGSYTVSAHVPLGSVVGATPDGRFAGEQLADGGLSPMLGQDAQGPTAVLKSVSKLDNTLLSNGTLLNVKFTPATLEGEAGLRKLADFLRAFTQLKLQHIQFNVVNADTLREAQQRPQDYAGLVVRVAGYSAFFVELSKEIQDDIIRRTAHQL
Procedure: (§1) The EcPflD glycine radical was characterized using continuous-wave X-band electron paramagnetic resonance (EPR) spectroscopy. A reaction system (200 µL) containing 20 mM Tris/HCl, (pH 7.5), 100 mM KCl, 100 µM titanium(III) citrate, 1 mM SAM, 80 µM reconstituted EcPflC, and 40 µM EcPflD was incubated for 15 minutes at room temperature in a glove box. Glycerol (10%) was added, and a resulting mixture was transferred to an EPR tube with an outer diameter of 4 mm and a length of 8 inches (Wilmad Lab Glass, 734-LPV-7). The tube was sealed with a rubber stopper, removed from the glove box, and frozen in liquid nitrogen prior to EPR analysis. […]
(§2) A reaction mixture containing 20 mM Tris/HCl, (pH 7.5), 100 mM KCl, 10 mM 1,5-AM-6P, 40 nM activated EcPflD, 5 µM EcFsaB, 5 µM EcGldA, and 0.4 mM NADH was incubated in a 1 cm Eppendorf cuvette in a glove box at room temperature. Absorbance at 340 nm was monitored every 5 seconds using a cuvette mode of an ultra-micro UV-Vis spectrophotometer (Hangzhou Miu Instruments Co., Ltd.) inside the glove box. […]
(§3) The reaction system containing 20 mM Tris/HCl, (pH 7.5), 100 mM KCl, 40 nM activated EcPflD and 1,5-AM-6P with various substrate concentrations, 2 µM EcFsaB, 2 µM EcGldA, and 0.4 mM NADH was measured using a cuvette mode of an ultra-micro UV-Vis spectrophotometer (Hangzhou Miu Instruments Co., Ltd.) in a 1 cm Eppendorf cuvette inside a glove box. […]

[3] = substrate: O=P(O)(O)OC[C@H]1OC[C@@H](O)[C@@H](O)[C@@H]1O; assay: as above; type: biochemical, Escherichia coli strain K12; settings: other: 40 nM activated EcPflD, 20 mM Tris/HCl pH 7.5, 100 mM KCl, 2 µM EcFsaB, 2 µM EcGldA, 0.4 mM NADH, anaerobic glove box, substrate 1,5-AM-6P at various concentrations
Procedure: as §1, §2, §3

## O=P(O)(O)OC[C@H]1OC[C@H](O)[C@@H](O)[C@@H]1O [1,5-AG-6P, 1,5-anhydroglucitol-6-phosphate]
[1]
  Km: 36.5 ± 6.66 mM
  kcat: 43.38 ± 2.96 s^-1/LpYbiW

## O=P(O)(O)OC[C@H]1OC[C@@H](O)[C@@H](O)[C@@H]1O [1,5-AM-6P, 1,5-anhydromannitol-6-phosphate]
[2]
  kcat: 33.47 ± 0.79 s^-1/EcPflD

B1: Escherichia coli strain K12 1,5-anhydromannitol-6-phosphate isomerase EcPflD (Uniprot P32674), SEQ ID NO: 98 (Escherichia coli K-12) (protein)
chain: MTNRISRLKTALFANTREISLERALLYTASHRQTEGEPVILRRAKATAYILEHVEISIRDEELIAGNRTVKPRAGIMSPEMDPYWLLKELDQFPTRPQDRFAISEEDKRIYREELFPYWEKRSMKDFINGQMTDEVKAATNTQIFSINQTDKGQGHIIIDYPRLLNHGLGELVAQMQQHCQQQPENHFYQAALLLLEASQKHILRYAELAETMAANCTDAQRREELLTIAEISRHNAQHKPQTFWQACQLFWYMNIILQYESNASSLSLGRFDQYMLPFYQTSLTQGEDAAFLKELLESLWVKCNDIVLLRSTSSARYFAGFPTGYTALLGGLTENGRSAVNVLSFLCLDAYQSVQLPQPNLGVRTNALIDTPFLMKTAETIRFGTGIPQIFNDEVVVPAFLNRGVSLEDARDYSVVGCVELSIPGRTYGLHDIAMFNLLKVMEICLHENEGNAALTYEGLLEQIRAKISHYITLMVEGSNICDIGHRDWAPVPLLSSFISDCLEKGRDITDGGARYNFSGVQGIGIANLSDSLHALKGMVFEQQRLSFDELLSVLKANFATPEGEKVRARLINRFEKYGNDIDEVDNISAELLRHYCKEVEKYQNPRGGYFTPGSYTVSAHVPLGSVVGATPDGRFAGEQLADGGLSPMLGQDAQGPTAVLKSVSKLDNTLLSNGTLLNVKFTPATLEGEAGLRKLADFLRAFTQLKLQHIQFNVVNADTLREAQQRPQDYAGLVVRVAGYSAFFVELSKEIQDDIIRRTAHQL
[3]
  Km: 1.33 ± 0.12 mM

From patent publication EP4818317A1, “POLYPEPTIDE FOR BIOSYNTHESIS OF 1,2-PROPANEDIOL AND USE THEREOF” (Tianjin University, priority 2023, dated 2025)
